Patent publication US10787444B2, “Compounds for the modulation of myc activity” (Syros Pharmaceuticals, Inc., priority 2015, dated 2020)
Structures can show the parent of a compound that is named as a salt. Where two headings read alike, the source gives them in different places.

Tests used:
[1] = biological target: T1, c-Myc/Max/Ebox DNA (Homo sapiens, UniProt P01106); assay: c-Myc/Max/Ebox DNA AlphaScreen Assay; assay type: binding; settings: calculated IC50 class
T1 construct: his6 (cleaved yes)
Method in brief: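 Compounds were preincubated with free c-Myc (20 nM), biotinylated single-Ebox DNA (10 nM) and Ni acceptor beads before his6-Max (5 nM) and streptavidin donor beads were added. Buffer was 50 mM HEPES pH 8.0, 150 mM NaCl, BSA, Tween20, glycogen and DTT, with DMSO ≤2%. After 2 h incubation, AlphaScreen signal was read at 680 nm excitation and 520–620 nm emission.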

[2] = tested on: human small lung cancer cell line H2171; assay: Cell Viability Assay (ATPlite); assay type: cell-based; settings: read-out: H2171 Activity
Method in brief: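 H2171 cells were plated at 20,000 cells/mL and dosed immediately by pin transfer with a 10-point dose series in DMSO. After three days at 37° C, ATPlite luminescence served as the viability readout.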

[3] = Table 2, compounds of FIG. 1, H2171 cells, three days, ATPlite, calculated IC50 class
[4] = Homo sapiens, NCI-H2171, 72 h, Table 2, compounds of FIG. 1, H2171 cells, three days, ATPlite, calculated IC50 class
[5] = Homo sapiens, NCI-H2171, 72 h, Table 3, compounds of FIG. 2, H2171 cells, three days, ATPlite, calculated IC50 class

T1 sequence (P01106 whole entry): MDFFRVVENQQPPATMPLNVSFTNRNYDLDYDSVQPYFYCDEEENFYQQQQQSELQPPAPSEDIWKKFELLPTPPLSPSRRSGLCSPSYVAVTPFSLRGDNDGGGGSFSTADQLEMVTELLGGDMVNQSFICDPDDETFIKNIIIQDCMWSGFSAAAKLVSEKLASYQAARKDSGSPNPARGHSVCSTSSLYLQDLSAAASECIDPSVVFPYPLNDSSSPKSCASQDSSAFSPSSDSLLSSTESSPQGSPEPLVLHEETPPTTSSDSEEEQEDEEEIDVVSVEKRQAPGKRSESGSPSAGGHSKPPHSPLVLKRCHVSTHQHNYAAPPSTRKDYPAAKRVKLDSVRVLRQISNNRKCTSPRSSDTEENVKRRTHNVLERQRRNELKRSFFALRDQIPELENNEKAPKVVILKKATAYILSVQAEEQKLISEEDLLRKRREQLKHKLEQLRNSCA

| Compound | IC50 ([1]; Table 2, compounds of FIG. 1) | IC50 [2, 3] | IC50 [2, 4] | also measured |
| --- | --- | --- | --- | --- |
| COCCNCCC(=O)Nc1sc2c(c1-c1nc3cc(-c4ccncc4)ccc3s1)CCNC2C (single isomer, unassigned) [Compound 548, 3-((2-Methoxyethyl)amino)-N-(7-methyl-3-(5-(pyridin-4-yl)benzo[d]thiazol-2-yl)-4,5,6,7-tetrahydrothieno[2,3-c]pyridin-2-yl)propanamide] | < 300 nM | < 300 nM |  |  |
| CC[C@H](C)NCCC(=O)Nc1sc2c(c1-c1nc3cc(F)ccc3s1)CCNC2 [Compound 156, (S)-3-(sec-butylamino)-N-(3-(5-fluorobenzo[d]thiazol-2-yl)-4,5,6,7-tetrahydrothieno[2,3-c]pyridin-2-yl)propanamide hydrochloride] | < 300 nM |  | < 300 nM |  |
| CC[C@H](C)NCCC(=O)Nc1sc2c(c1-c1nc3ccccc3s1)CC(C)NC2C (single isomer, unassigned) [Compound 624] | < 300 nM | < 300 nM |  |  |
| CC(=O)Nc1sc2c(c1-c1nc3cc(N(C)C)ccc3s1)CCNC2 [Compound 230, N-(3-(5-(dimethylamino)benzo[d]thiazol-2-yl)-4,5,6,7-tetrahydrothieno[2,3-c]pyridin-2-yl)acetamide] |  |  |  | IC50 ([1]; Table 3, compounds of FIG. 2): 1000 to 10000 nM; IC50 [2, 5]: > 10000 nM |
| CC(C)NCCC(=O)Nc1sc2c(c1-c1nc3cc(C(=O)N4CCN(C)CC4)ccc3s1)CCNC2 [Compound 324, 3-(Isopropylamino)-N-(3-(5-(4-methylpiperazine-1-carbonyl)benzo[d]thiazol-2-yl)-4,5,6,7-tetrahydrothieno[2,3-c]pyridin-2-yl)propanamide] | 300 to 1000 nM |  | 1000 to 10000 nM |  |
| CCC(C)N(C)CCC(=O)Nc1sc2c(c1-c1nc3ccccc3s1)CCN(C(C)C)C2 (stereo not drawn) [Compound 577, N-(3-(benzo[d]thiazol-2-yl)-6-isopropyl-4,5,6,7 tetrahydrothieno[2,3-c]pyridin-2-yl)-3-(sec-butyl(methyl)amino)propanamide] | > 10000 nM | > 10000 nM |  |  |
| CCCNCCC(=O)Nc1sc2c(c1-c1nc3ccccc3s1)CCN(C(C)C)C2 [Compound 539, N-(3-(Benzo[d]thiazol-2-yl)-6-isopropyl-4,5,6,7-tetrahydrothieno[2,3-c]pyridin-2-yl)-3-(propylamino)propanamide] | 300 to 1000 nM | 300 to 1000 nM |  |  |
| COCCNCCC(=O)Nc1sc2c(c1-c1nc3ccc(C4=CCNCC4)cc3s1)CCNC2 [compound 459] | < 300 nM |  | < 300 nM |  |
| COCCNCCC(=O)Nc1sc2c(c1-c1nc3cc(F)ccc3s1)CC(C)NC2C (single isomer, unassigned) [Compound 545, N-(3-(5-Fluorobenzo[d]thiazol-2-yl)-5,7-dimethyl-4,5,6,7-tetrahydrothieno[2,3-c]pyridin-2-yl)-3-((2-methoxyethyl)amino)propanamide] | < 300 nM | < 300 nM |  |  |
| CC[C@H](C)NCCC(=O)Nc1sc2c(c1-c1nc3ccccc3s1)CC(C)NC2C (single isomer, unassigned) [Compound 621] | > 10000 nM | 1000 to 10000 nM |  |  |
| COCCNCCC(=O)Nc1sc2c(c1-c1nc3cc(-c4ccncc4)ccc3s1)CC(C)NC2C (single isomer, unassigned) [Compound 522, N-(5,7-dimethyl-3-(5-(pyridin-4-yl)benzo[d]thiazol-2-yl)-4,5,6,7-tetrahydrothieno[2,3-c]pyridin-2-yl)-3-((2-methoxyethyl)amino)propanamide] | < 300 nM | < 300 nM |  |  |
| CC(C)NCCC(=O)Nc1sc2c(c1-c1nc3ccccc3s1)CC(C)NC2C (single isomer, unassigned) [Compound 197, N-(3-(benzo[d]thiazol-2-yl)-5,7-dimethyl-4,5,6,7-tetrahydrothieno[2,3-c]pyridin-2-yl)-3-(isopropylamino)propanamide] | 1000 to 10000 nM | 300 to 1000 nM |  |  |
| CC(=O)Nc1sc2c(c1-c1nc3cc(C(F)(F)F)ccc3s1)CCNC2 [Compound 204, N-(3-(5-(trifluoromethyl)benzo[d]thiazol-2-yl)-4,5,6,7-tetrahydrothieno[2,3-c]pyridin-2-yl)acetamide] |  |  |  | IC50 ([1]; Table 3, compounds of FIG. 2): 1000 to 10000 nM; IC50 [2, 5]: 1000 to 10000 nM |
| COCCNC(=O)c1ccc2sc(-c3c(NC(=O)CCNC(C)C)sc4c3CCNC4)nc2c1 [Compound 323, 2-(2-(3-(Isopropylamino)propanamido)-4,5,6,7-tetrahydrothieno[2,3-c]pyridin-3-yl)-N-(2-methoxyethyl)benzo[d]thiazole-5-carboxamide] | < 300 nM |  | < 300 nM |  |
| CCC(=O)NCCC(=O)Nc1sc2c(c1-c1nc3ccccc3s1)CCNC2 [Compound 199, N-(3-(benzo[d]thiazol-2-yl)-4,5,6,7-tetrahydrothieno[2,3-c]pyridin-2-yl)-3-propionamidopropanamide] | 1000 to 10000 nM |  | 1000 to 10000 nM |  |
| CC(C)NCCC(=O)Nc1sc2c(c1-c1nc3cc(C4=CCOCC4)ccc3s1)CCNC2 [compound 165] | < 300 nM |  | < 300 nM |  |
| CC[C@@H](C)NCCC(=O)Nc1sc2c(c1-c1nc3ccccc3s1)CCN(C(C)C)C2 [Compound 140, (R)—N-(3-(benzo[d]thiazol-2-yl)-6-isopropyl-4,5,6,7-tetrahydrothieno[2,3-c]pyridin-2-yl)-3-(sec-butylamino)propanamide] | < 300 nM |  | < 300 nM |  |
| COCCNCCC(=O)Nc1sc2c(c1-c1nc3ccccc3s1)CC(C)NC2C (single isomer, unassigned) [Compound 509, N-(3-(Benzo[d]thiazol-2-yl)-5,7-dimethyl-4,5,6,7-tetrahydrothieno[2,3-c]pyridin-2-yl)-3-((2-methoxyethyl)amino)propanamide] | 1000 to 10000 nM | < 300 nM |  |  |
| COCCNCCC(=O)Nc1sc2c(c1-c1nc3ccc(-c4cnn(C(C)C)c4)cc3s1)CCNC2 [compound 358] | < 300 nM |  | < 300 nM |  |
| CC(C)NCCC(=O)Nc1sc2c(c1-c1nc3c(Br)cccc3s1)CCNC2 [compound 516] | < 300 nM |  | < 300 nM |  |
| O=C(CCNCc1c[nH]cn1)Nc1sc2c(c1-c1nc3ccccc3s1)CCNC2 [Compound 190, 3-(((1H-imidazol-4-yl)methyl)amino)-N-(3-(benzo[d]thiazol-2-yl)-4,5,6,7-tetrahydrothieno[2,3-c]pyridin-2-yl)propanamide] | < 300 nM |  | < 300 nM |  |
| COCCNCCC(=O)Nc1sc2c(c1-c1nc3ccc(-c4cccnc4)cc3s1)CC(C)NC2C (single isomer, unassigned) [Compound 528, N-(5,7-Dimethyl-3-(6-(pyridin-3-yl)benzo[d]thiazol-2-yl)-4,5,6,7-tetrahydrothieno[2,3-c]pyridin-2-yl)-3-((2-methoxyethyl)amino)propanamide] | 300 to 1000 nM | 300 to 1000 nM |  |  |
| CC(C)N1CCc2c(sc(NC(=O)CCN3CCC3)c2-c2nc3ccccc3s2)C1 [Compound 541, 3-(Azetidin-1-yl)-N-(3-(benzo[d]thiazol-2-yl)-6-isopropyl-4,5,6,7-tetrahydrothieno[2,3-c]pyridin-2-yl)propanamide] | 300 to 1000 nM |  |  | IC50 ([2]; Homo sapiens, NCI-H2171, 72 h): < 300 nM |
| CCC(C)NCCC(=O)Nc1sc2c(c1-c1nc3cc(-c4cn[nH]c4)ccc3s1)CCNC2 (stereo not drawn) [compound 151] | < 300 nM |  | < 300 nM |  |
